By pEC50 is commonly meant the EC50 on a negative log10 scale, so that one unit is a factor of ten.

This assay can be described thus: Inhibition of Aurora kinase B in human HCT116 cells assessed as induction of 8N polyploidy.

pEC50: −log10 of the molar value.

Take `Cc1cc(Nc2nc(Sc3ccc(NC(=O)CN4CC[C@@H](C(=O)NC5CCCC5)C4)cc3)nn3cccc23)n[nH]1`: the pEC50 is 8.52.

Consider `Cc1cc(Nc2nc(Sc3ccc(NC(=O)CN4CC[C@@H](C(=O)N5CCC(F)(F)C5)C4)cc3)nn3cccc23)n[nH]1`, for which the negative-log EC50 (pEC50) was 8.52.

For the origin of these results see BindingDB's records for doi:10.1021/jm201702g (Ambit Biosciences, 2012).
